Assay results: US20070043110A1, “Nontoxic potentiation sensitization of ovarian cancer therapy by supplementary treatment with vitamins” (Summa Health System, priority 2001, published 2007)
Structures can show the parent of a compound that is named as a salt. Where two headings read alike, the source gives them in different places.

Legend:
[1] = system: murine transplantable liver tumor (TLT); settings: cited from earlier work
J82 = assay: Antitumor activity by MTT assay, J82; settings: Homo sapiens
Text: (§1) The FIC index was used to evaluate the synergism of the vitamins. A FIC<1.0 indicates the combination is synergistic, while a FIC>1.0 indicates the combination is antagonistic. A FIC=1.0 indicates the combination is indifferent. […] During this time, two requests for humanitarian intervention were made.

RT4 = assay: Antitumor activity by MTT assay, RT4; settings: Homo sapiens
Text: as §1

SCaBER = assay: Antitumor activity by MTT assay, SCaBER; settings: Homo sapiens
Text: as §1

T24 = assay: Antitumor activity by MTT assay, T24; settings: Homo sapiens
Text: as §1

TCCSUP = assay: Antitumor activity by MTT assay, TCCSUP; settings: Homo sapiens, TCC-SUP
Text: as §1

MDA-MB-231 = assay: Antitumor activity by MTT assay, MDA-MB-231; settings: Homo sapiens
Text: as §1

Caki-1 = assay: Antitumor activity by MTT assay, Caki-1; settings: Homo sapiens
Text: as §1

MDAH 2774 cells = assay: Antitumor activity by MTT assay, MDAH 2774
Text: as §1

SKOV3 = assay: Antitumor activity by MTT assay, SKOV3; settings: Homo sapiens
Text: as §1

CWR22 = assay: Antitumor activity by MTT assay, CWR22; settings: Homo sapiens
Text: as §1

DU145 = assay: Antitumor activity by MTT assay, DU145; settings: Homo sapiens
Text: as §1

PC3 = assay: Antitumor activity by MTT assay, PC3; settings: Homo sapiens
Text: as §1

Tera-2 = assay: Antitumor activity by MTT assay, Tera-2; settings: Homo sapiens
Text: as §1

CAOV-3 cell line = assay: Cytotoxicity (CD50), CAOV-3; assay type: cell-based; settings: Homo sapiens
Text: as §1

ES-2 cell line = assay: Cytotoxicity (CD50), ES-2; assay type: cell-based; settings: Homo sapiens
Text: as §1

prostate cancer = assay: Randomized trial in prostate cancer patients, serum HCY and PSA; assay type: in vivo, human; design: Variation of Serum HCY (mean ± SD): unit not given here; settings: for difference in serum levels of homocysteine and PSA versus control group: individual vitamin treatment groups (Group 2 or Group 3) vs Group 4
Description: Recently a prospective, randomized trial was performed with 20 prostate cancer patients who had pathologically proven prostate cancer in advanced stages (M1) with osseous metastasis and resistance to hormone therapy. The patients were randomly distributed in four groups of five patients each. […] In Group 2, ascorbic acid was omitted. In Group 3, menadione was omitted. A placebo was administered to patients of Group 4. Only two treatment courses were tested in this study so that the immediate effects of the vitamins in a clinical model could be determined and compared to the immediate induction of autoschizis elicited by the vitamin combination in preclinical models. Homocysteine (a good marker of the number of tumor cells with sensitivity for early detection of tumor cell death induced by treatments) and prostate specific antigen (PSA) assays were performed in the four groups to obtain information about the tumor cell death induced by the treatments. Serum homocysteine (HCY) and PSA were measured the first day of each week (day 1, 8, 15, 22, 29, 36, and […] of the study). […] This fall in serum HCY was highly significant (p<<0.01) in all weekly measures after the first series (day 8-42). […] The reasons for the initial increase in serum PSA levels are unknown.

terminal cancer = settings: cited from earlier work
advanced cancer = settings: 10 grams given orally; cited from earlier work
[2] = 10 to 100 g twice per week; cited from earlier work
[3] = mouse, in vivo
hepatoma = settings: weekly i.p. 10 mg/2 mL for 4 weeks, cited from earlier work
tumor growth = settings: cited from earlier work
[4] = 400-500 mg/day over 3-5 consecutive days; cited from earlier work
[5] = cited from earlier work
advanced lung cancer = settings: cited from earlier work
gastrointestinal cancer = settings: VK3 with mitomycin C; 43 patients; cited from earlier work
[6] = bisulfite form; cited from earlier work
[7] = mice; cited from earlier work
[8] = read-out: Vitamins Alone, Vit C 50% Cytotoxic Dose
[9] = assay day 8, oral 7 day courses from day 1 and day 22, VC 5 g/m^2/day, VK3 50 mg/m^2/day, pretreatment = 0
[10] = read-out: Vitamins Alone, Vit K3 50% Cytotoxic Dose

## CC[C@]1(O)C[C@H]2CN(CCc3c([nH]c4ccccc34)[C@@](C(=O)OC)(c3cc4c(cc3OC)N(C=O)[C@H]3[C@@](O)(C(=O)OC)[C@H](OC(C)=O)[C@]5(CC)C=CCN6CC[C@]43[C@@H]65)C2)C1 [Oncovin, vincristine sulfate]
[1]; second study, each agent alone, Oncovin 0.3 mg/kg
  MST: 19.0 days

## O=C1O[C@H]([C@@H](O)CO)C([O-])=C1O.[Na+] [Vitamin C, Sodium Ascorbate]
J82; J82, read-out: Vitamins Alone, Vit C 50% Cytotoxic Dose
  IC50: 376 ± 1 µM
RT4; RT-4, read-out: Vitamins Alone, Vit C 50% Cytotoxic Dose
  IC50: 2430 ± 28 µM
SCaBER; [8]
  IC50: 327 ± 6 µM
T24; T-24, read-out: Vitamins Alone, Vit C 50% Cytotoxic Dose
  IC50: 1490 ± 141 µM
TCCSUP; [8]
  IC50: 297 ± 7 µM
MDA-MB-231; MDA-MB-231, read-out: Vitamins Alone, Vit C 50% Cytotoxic Dose
  IC50: 466 ± 3.23 µM
Caki-1; CAKI-1, read-out: Vitamins Alone, Vit C 50% Cytotoxic Dose
  IC50: 376 ± 1 µM
MDAH 2774 cells; Homo sapiens, MDAH 2774, read-out: Vitamins Alone, Vit C 50% Cytotoxic Dose, MDAH, Ovarian
  IC50: 1530 µM
MDAH 2774 cells; read-out: Vitamins Alone, Vit C 50% Cytotoxic Dose, MDAH, Ovarian
  IC50: 1520 ± 29 µM
SKOV3; SK-OV-3, read-out: Vitamins Alone, Vit C 50% Cytotoxic Dose
  IC50: 755 ± 24.1 µM
CWR22; CWR22, read-out: Vitamins Alone, Vit C 50% Cytotoxic Dose
  IC50: 254 ± 1.02 µM
DU145; DU-145, read-out: Vitamins Alone, Vit C 50% Cytotoxic Dose
  IC50: 2460 ± 28 µM
PC3; PC-3, read-out: Vitamins Alone, Vit C 50% Cytotoxic Dose
  IC50: 2360 ± 39 µM
Tera-2; [8]
  IC50: 1312 ± 10 µM
CAOV-3 cell line; Caov-3, read-out: CD50, vitamin C alone
  IC50: 1360 µM
ES-2 cell line; read-out: CD50, VC alone
  IC50: 197 µM
Prostate cancer; [9]
  Variation of Serum HCY (mean ± SD): 0.59 ± 0.508
Prostate cancer; assay day 15
  Variation of Serum HCY (mean ± SD): 0.74 ± 0.349
Prostate cancer; assay day 22
  Variation of Serum HCY (mean ± SD): 1.24 ± 0.448
Prostate cancer; assay day 29
  Variation of Serum HCY (mean ± SD): 1.45 ± 0.498
Prostate cancer; assay day 36
  Variation of Serum HCY (mean ± SD): 1.32 ± 0.448
Prostate cancer; assay day 42
  Variation of Serum HCY (mean ± SD): 1.34 ± 0.486
Prostate cancer
  difference in serum levels of homocysteine and PSA versus control group: non-significant difference
[1]; VC alone 1 g/Kg body weight
  increased lifespan: 14.7%
Terminal cancer; 100 terminal cancer patients, 10 g/day i.v. for 10 days then 10 g/day orally, controls 50 days
  mean survival time: more than 210 days
Terminal cancer; six ovarian cancer patients, controls 71 days
  mean survival time: 148 days
Advanced cancer
  effectiveness of oral Vitamin C: no benefits
[2]
  remissions with high doses of i.v. VC: a small number of complete remissions

## CC1=CC(=O)c2ccccc2C1=O [Vitamin K3, 2-Methyl-1,4-Naphthoquinone]
J82; J82, read-out: Vitamins Alone, Vit K3 50% Cytotoxic Dose
  IC50: 8.2 ± 0.15 µM
RT4; RT-4, read-out: Vitamins Alone, Vit K3 50% Cytotoxic Dose
  IC50: 12.8 ± 0.03 µM
SCaBER; [10]
  IC50: 9.7 ± 0.15 µM
T24; T-24, read-out: Vitamins Alone, Vit K3 50% Cytotoxic Dose
  IC50: 13.1 ± 0.01 µM
TCCSUP; [10]
  IC50: 6.3 ± 0.06 µM
MDA-MB-231; MDA-MB-231, read-out: Vitamins Alone, Vit K3 50% Cytotoxic Dose
  IC50: 7.1 ± 0.21 µM
Caki-1; CAKI-1, read-out: Vitamins Alone, Vit K3 50% Cytotoxic Dose
  IC50: 19.3 ± 0.33 µM
MDAH 2774 cells; Homo sapiens, MDAH 2774, read-out: Vitamins Alone, Vit K3 50% Cytotoxic Dose, MDAH, Ovarian
  IC50: 41.8 µM
SKOV3; SK-OV-3, read-out: Vitamins Alone, Vit K3 50% Cytotoxic Dose
  IC50: 22 ± 1.93 µM
CWR22; CWR22, read-out: Vitamins Alone, Vit K3 50% Cytotoxic Dose
  IC50: 4.1 ± 0.33 µM
DU145; DU-145, read-out: Vitamins Alone, Vit K3 50% Cytotoxic Dose
  IC50: 12.9 ± 0.81 µM
PC3; PC-3, read-out: Vitamins Alone, Vit K3 50% Cytotoxic Dose
  IC50: 11.4 ± 0.13 µM
Tera-2; [10]
  IC50: 21.8 ± 0.73 µM
CAOV-3 cell line; Caov-3, read-out: CD50, VK3 alone
  IC50: 22 µM
ES-2 cell line; read-out: CD50, VK alone
  IC50: 25 µM
Prostate cancer; [9]
  Variation of Serum HCY (mean ± SD): 0.468 ± 0.362
Prostate cancer; assay day 15
  Variation of Serum HCY (mean ± SD): 0.59 ± 0.227
Prostate cancer; assay day 22
  Variation of Serum HCY (mean ± SD): 0.68 ± 0.210
Prostate cancer; assay day 29
  Variation of Serum HCY (mean ± SD): 0.76 ± 0.341
Prostate cancer; assay day 36
  Variation of Serum HCY (mean ± SD): 1.12 ± 0.400
Prostate cancer; assay day 42
  Variation of Serum HCY (mean ± SD): 1.3 ± 0.432
Prostate cancer
  difference in serum levels of homocysteine and PSA versus control group: non-significant difference
[3]
  toxicity to livers: no toxicity
[1]; VK3 alone 0.01 g/Kg body weight
  increased lifespan: 1.07%
hepatoma
  long term survivors: 5 out of 16
hepatoma; control rats 17 days
  survival: 60 days
Tumor growth; VK3 225 mg/kg/day with methotrexate
  inhibition of tumor growth: 84%
Tumor growth; menadione 250 mg/kg/day with methotrexate 0.75 mg/kg/day
  inhibition of tumor growth: 99%
Tumor growth; rat, in vivo
  circulating levels of VK3 that induce synergism with methotrexate: ≥ 1 µM
[4]
  toxicity in phase I clinical trials: without any appreciable toxicity
[5]; 48-hour intravenous infusion, followed by mitomycin C 15 mg/m2 every four weeks
  maximum tolerated dose of VK3: 2.5 g/m^2
[5]; i.v., in conjunction with mitomycin C, Phase I and Phase II trials
  tolerability: well tolerated
[5]; with mitomycin C every four weeks
  hemolysis at maximum tolerated dose: no hemolysis
Advanced lung cancer; VK3 in combination with mitomycin C, 23 patients
  median survival: 5.5 months
Advanced lung cancer; VK3 with mitomycin C
  patients exhibiting hematologic toxicity: 30%
  patients exhibiting some tumor regression: 26%
Gastrointestinal cancer
  response to therapy: no objective response
[6]
  solubility: water soluble
[7]
  LD50: 500 mg/kg

## O=P1(N(CCCl)CCCl)NCCCO1 (stereo not shown) [cyclophosphamide]
[1]; single dose of cyclophosphamide 80 mg/kg body weight
  ILS: 23%
[1]; single dose of cyclophosphamide 80 mg/kg body weight, untreated 16.8 days
  MST: 20.6 days
